The record followed here is US10266497B2 (ABIDE THERAPEUTICS, INC., priority 2017, dated 2019).

Assay [1] deals with T1, MAGL (Mus musculus, UniProt O35678).
T1 sequence (O35678 1-303): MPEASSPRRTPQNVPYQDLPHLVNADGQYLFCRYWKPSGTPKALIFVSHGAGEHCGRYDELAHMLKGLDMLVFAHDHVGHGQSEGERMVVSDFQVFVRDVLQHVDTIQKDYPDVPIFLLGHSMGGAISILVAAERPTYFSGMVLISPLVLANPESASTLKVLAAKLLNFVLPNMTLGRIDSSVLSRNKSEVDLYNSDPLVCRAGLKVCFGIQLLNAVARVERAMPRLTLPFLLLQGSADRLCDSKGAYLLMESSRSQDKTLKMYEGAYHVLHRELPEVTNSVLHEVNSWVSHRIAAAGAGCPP
Description: In vitro competitive activity-based protein profiling, MAGL, mouse. The conditions noted are these: read-out: MAGL % inh. 1 μM (mouse).

In assay [2] the target is T2, MAGL (Homo sapiens, UniProt Q99685).
T2 sequence (Q99685 1-303): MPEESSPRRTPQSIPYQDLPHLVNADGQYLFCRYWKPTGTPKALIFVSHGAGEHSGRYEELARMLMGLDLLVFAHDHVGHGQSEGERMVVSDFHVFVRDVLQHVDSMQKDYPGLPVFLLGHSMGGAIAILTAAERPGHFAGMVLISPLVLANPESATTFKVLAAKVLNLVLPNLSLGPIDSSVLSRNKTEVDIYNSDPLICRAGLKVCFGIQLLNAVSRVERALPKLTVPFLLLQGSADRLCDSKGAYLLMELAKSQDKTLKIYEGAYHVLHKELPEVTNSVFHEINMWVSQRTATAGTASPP
Description: In vitro competitive activity-based protein profiling, MAGL, human. The conditions noted are these: for inhibition at 1 µM: read-out: MAGL % inh. 1 μM (human).
Description: Biological Evaluation In Vitro Competitive Activity-Based Protein Profiling.
Proteomes (mouse brain membrane fraction for mouse assays; human prefrontal cortex membrane fractions for human assays) (50 mL, 1.0 mg/mL total protein concentration) were preincubated with varying concentrations of inhibitors at 37° C. After 30 min, FP-Rh (1.0 mL, 50 mM in DMSO) was added and the mixture was incubated for another 30 min at 37° C. Reactions were quenched with SDS loading buffer (15 μL—4λ) and run on SDS-PAGE.

Assay [3] deals with T3, FAAH (Mus musculus, UniProt O08914).
T3 sequence (O08914 1-579): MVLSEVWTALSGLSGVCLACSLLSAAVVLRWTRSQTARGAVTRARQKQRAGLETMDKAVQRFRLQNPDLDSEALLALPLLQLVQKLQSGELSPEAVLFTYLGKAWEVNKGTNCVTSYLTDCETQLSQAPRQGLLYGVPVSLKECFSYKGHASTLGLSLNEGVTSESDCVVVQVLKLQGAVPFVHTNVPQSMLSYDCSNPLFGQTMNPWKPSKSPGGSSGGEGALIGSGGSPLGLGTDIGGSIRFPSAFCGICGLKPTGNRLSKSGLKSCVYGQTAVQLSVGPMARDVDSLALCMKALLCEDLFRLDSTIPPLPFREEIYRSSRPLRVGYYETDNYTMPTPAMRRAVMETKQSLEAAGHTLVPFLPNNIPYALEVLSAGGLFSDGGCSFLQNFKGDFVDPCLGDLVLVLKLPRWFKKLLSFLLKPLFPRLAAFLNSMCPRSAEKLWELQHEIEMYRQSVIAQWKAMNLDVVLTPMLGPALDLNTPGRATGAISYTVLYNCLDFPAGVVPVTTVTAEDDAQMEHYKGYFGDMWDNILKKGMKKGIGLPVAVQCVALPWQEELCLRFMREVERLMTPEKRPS
Description: In vitro competitive activity-based protein profiling, FAAH, mouse. The conditions noted are these: read-out: FAAH % inh. 1 μM (mouse).

The target in assay [4] is T4, FAAH (Homo sapiens, UniProt O00519).
T4 sequence (O00519 1-579): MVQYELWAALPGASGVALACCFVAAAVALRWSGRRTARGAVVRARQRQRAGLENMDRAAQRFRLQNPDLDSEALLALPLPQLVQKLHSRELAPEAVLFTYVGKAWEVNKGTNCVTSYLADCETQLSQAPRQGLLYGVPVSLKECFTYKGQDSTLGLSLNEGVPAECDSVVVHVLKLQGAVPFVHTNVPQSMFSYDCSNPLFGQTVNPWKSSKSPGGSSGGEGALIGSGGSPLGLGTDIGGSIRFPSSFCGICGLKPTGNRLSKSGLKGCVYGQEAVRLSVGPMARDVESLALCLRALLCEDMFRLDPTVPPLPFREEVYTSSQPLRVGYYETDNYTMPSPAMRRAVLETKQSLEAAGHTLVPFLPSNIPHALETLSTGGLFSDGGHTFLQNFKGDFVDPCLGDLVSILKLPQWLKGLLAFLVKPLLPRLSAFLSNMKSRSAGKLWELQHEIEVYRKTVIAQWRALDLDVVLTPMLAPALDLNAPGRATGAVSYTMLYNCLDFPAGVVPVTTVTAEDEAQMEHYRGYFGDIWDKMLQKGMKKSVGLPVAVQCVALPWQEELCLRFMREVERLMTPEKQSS
Description: In vitro competitive activity-based protein profiling, FAAH, human. To be noted: for inhibition at 1 µM: read-out: FAAH % inh. 1 μM (human).

Turning to `O=C(O)c1ccn(C(=O)N2CCN(Cc3cccc(Oc4cncnc4)c3)CC2)n1` [Example 65, 1-(4-(3-(pyrimidin-5-yloxy)benzyl)piper-azine-1-carbonyl)-1H-pyrazole-3-carboxylic acid], the inhibition at 1 µM in assay [1] fell in the range of 25 to 50%; in assay [2], 50 to 75%; in assay [3], 0 to 25%; in assay [4], 0 to 25%.

The term IC50 denotes the midpoint of a concentration-inhibition curve. For the compound `CN(Cc1cc(Cl)ccc1C(F)(F)F)CC1CCN(C(=O)n2ccc(C(=O)O)n2)CC1` [Example 209, 1-(4-(((5-chloro-2-(trifluoromethyl)benzyl)(methyl)amino)methyl)piper-idine-1-carbonyl)-1H-pyrazole-3-carboxylic acid], the inhibition at 1 µM in assay [1], in assay [2], in assay [3] and in assay [4] was more than 75% in each case. Further, in assay [4], the IC50 was in the range of 0.1 to 1 µM.

For the compound `O=C(O)c1ccn(C(=O)N2CCC3(CCCN3Cc3ccc(C(F)(F)F)cc3-c3nnn[nH]3)CC2)n1` [Example 126, 1-(1-(2-(1H-tetrazol-5-yl)-4-(trifluoromethyl)benzyl)-1,8-diazaspiro[4.5]decane-8-carbonyl)-1H-pyrazole-3-carboxylic acid], the inhibition at 1 µM in assay [1] fell in the range of 0 to 25%; in assay [2], 25 to 50%; in assay [3], 0 to 25%; in assay [4] it was 0 to 25%.

As for `O=C(O)c1ccn(C(=O)N2CCN(Cc3nc4ccccc4s3)CC2)n1` [Example 189, 1-(4-(benzo[d]thiazol-2-ylmethyl)piperazine-1-carbonyl)-1H-pyrazole-3-carboxylic acid], the inhibition at 1 µM in assay [1] was more than 75%; in assay [2] it was more than 75%; in assay [3], 0 to 25%; in assay [4], 0 to 25%.

Turning to `O=C(O)c1nn(C(=O)N2CCC3(CCN(Cc4ccc(N5CCCC5)cc4C(F)(F)F)C3)CC2)cc1C(F)(F)F` [Example 150, 1-(2-(4-(pyrrolidin-1-yl)-2-(trifluoromethyl)benzyl)-2,8-diazaspiro[4.5]decane-8-carbonyl)-4-(trifluoromethyl)-1H-pyrazole-3-carboxylic acid], the inhibition at 1 µM in assay [1] is 25 to 50%; in assay [2], 25 to 50%; in assay [3] it was more than 75%; in assay [4], 50 to 75%.

As for `CN(Cc1ccc(Cl)c(N2CCCC2)c1)C1(C)CCN(C(=O)n2ccc(C(=O)O)n2)CC1` [Example 39, 1-(4-((4-chloro-3-(pyrrolidin-1-yl)benzyl)(methyl)amino)-4-methylpiperidine-1-carbonyl)-1H-pyrazole-3-carboxylic acid], the inhibition at 1 µM is more than 75% in assay [1], more than 75% in assay [2], 0 to 25% in assay [3] and 0 to 25% in assay [4].

As for `Cc1cc(CN2CCC3(CCN(C(=O)n4ccc(C(=O)O)n4)CC3)C2)ccc1C(F)(F)F` [Example 155, 1-(2-(3-methyl-4-(trifluoromethyl)benzyl)-2,8-diazaspiro[4.5]decane-8-carbonyl)-1H-pyrazole-3-carboxylic acid], the inhibition at 1 µM in assay [1] was more than 75%; in assay [2], more than 75%; in assay [3], 0 to 25%; in assay [4] it was 0 to 25%. Also, the IC50 in assay [2] lay in the range of 0.1 to 1 µM; in assay [4], 1 to 10 µM.

For the compound `O=C(O)c1ccn(C(=O)N2CCC3(CCN(Cc4cc(F)cc(C(F)(F)F)c4)C3)CC2)n1` [Example 152, 1-(2-(3-fluoro-5-(trifluoromethyl)benzyl)-2,8-diazaspiro[4.5]decane-8-carbonyl)-1H-pyrazole-3-carboxylic acid], the inhibition at 1 µM is more than 75% in assay [1], more than 75% in assay [2], 50 to 75% in assay [3] and 0 to 25% in assay [4].

Take `O=C(O)c1ccn(C(=O)N2CCC3(CCN(Cc4cccc(-c5ccccc5)c4)C3)CC2)n1` [Example 73, 1-(2-([1,1′-biphenyl]-3-ylmethyl)-2,8-diazaspiro[4.5]decane-8-carbonyl)-1H-pyrazole-3-carboxylic acid]: the inhibition at 1 µM is more than 75% in assay [1], more than 75% in assay [2], 50 to 75% in assay [3] and 0 to 25% in assay [4].

As to `CN(Cc1cccc(-c2ccccc2)c1)[C@@H]1C[C@@H]2CN(C(=O)n3ccc(C(=O)O)n3)C[C@@H]2C1` [Example 163, 1-(cis-5-(([1,1′-biphenyl]-3-ylmethyl)(methyl)amino)octahydro-cyclopenta[c]pyrrole-2-carbonyl)-1H-pyrazole-3-carboxylic acid], the inhibition at 1 µM in assay [1] fell in the range of 0 to 25%; in assay [2], 0 to 25%; in assay [3], 0 to 25%; in assay [4], 25 to 50%.

With `O=C(O)c1ccn(C(=O)N2CCN(Cc3ccc(C(F)(F)F)cc3N3CCC(F)(F)CC3)CC2)n1` [Example 108, 1-(4-(2-(4,4-difluoropiperidin-1-yl)-4-(trifluoromethyl)benzyl)piperazine-1-carbonyl)-1H-pyrazole-3-carboxylic acid], the inhibition at 1 µM in assay [1] was more than 75%; in assay [2] it was more than 75%; in assay [3] it was 0 to 25%; in assay [4], 0 to 25%.

Consider `O=C(O)c1ccn(C(=O)N2CCN(Cc3ccc(N4CCCC4)cc3C(F)(F)F)CC2)n1` [Example 167, 1-(4-(4-(pyrrolidin-1-yl)-2-(trifluoromethyl)benzyl)piperazine-1-carbonyl)-1H-pyrazole-3-carboxylic acid], for which the inhibition at 1 µM in assay [1] is more than 75%; in assay [2], more than 75%; in assay [3], 0 to 25%; in assay [4] it was 25 to 50%. In assay [4], the IC50 is 1 to 10 µM.

In the case of `Cc1cc(-c2ccccc2)ccc1CN1CCN(C(=O)n2ccc(C(=O)O)n2)C(C)C1` (centres unmarked) [Example 89, 1-(2-methyl-4-((3-methyl-[1,1′-biphenyl]-4-yl)methyl)piperazine-1-carbonyl)-1H-pyrazole-3-carboxylic acid], the inhibition at 1 µM in assay [1], in assay [2], in assay [3] and in assay [4] was more than 75% in each case. The compound also yielded a 50% inhibitory concentration (IC50) in assay [4] of 0.1 to 1 µM.

Consider `O=C(O)c1ccn(C(=O)N2C[C@H]3C[C@@H](OCc4ccccc4Cl)C[C@H]3C2)n1` [Example 41, 1-(cis-5-((2-chlorobenzyl)oxy)octahydrocyclo-penta[c]pyrrole-2-carbonyl)-1H-pyrazole-3-carboxylic acid], for which the inhibition at 1 µM in assay [1] was 0 to 25%; in assay [2], more than 75%; in assay [3] it was 0 to 25%; in assay [4], more than 75%.

With `O=C(O)c1ccn(C(=O)N2CCC3(CCN(Cc4ccc(C(F)(F)F)cc4N4CCC(F)CC4)CC3)C2)n1` [Example 186, 1-(8-(2-(4-fluoropiperidin-1-yl)-4-(trifluoromethyl)benzyl)-2,8-diazaspiro[4.5]decane-2-carbonyl)-1H-pyrazole-3-carboxylic acid], the inhibition at 1 µM in assay [1] was more than 75%; in assay [2], 50 to 75%; in assay [3], 0 to 25%; in assay [4], 0 to 25%.
